The source made the active and inactive calls. The rule behind the calls is not given here.
Legend:
RPMI-8226 [1] = assay: Induction of apoptosis in human RPMI-8226 cells assessed as early apoptotic cells at 2.5 uM incubated for 24 hrs by Annexin V-FITC/PI staining based flow cytometry (reference value: 5.34 %); format: functional
[2] = Toxicity in Balb/c nude mouse xenografted with human RPMI-8226 cells assessed as adverse effect on serum uric acid level at 10 to 40 mg/kg, po qd for 21 days administered consecutively; format: organism-based; conditions: in vivo, 504 h, dose 10-40 mg/kg, time 21 day
RPMI-8226 [3] = assay: Induction of apoptosis in human RPMI-8226 cells assessed as early apoptotic cells at 0.1 uM incubated for 24 hrs by Annexin V-FITC/PI staining based flow cytometry (reference value: 5.34 %); format: functional
[4] = molecular target: T1, Protein deacetylase HDAC6 (Homo sapiens, UniProt Q9UBN7); assay: Inhibition of HDAC6 (unknown origin) preincubated for 10 mins followed by substrate addition measured for 1 hr by fluorescence based assay
T1 sequence (Q9UBN7 whole entry): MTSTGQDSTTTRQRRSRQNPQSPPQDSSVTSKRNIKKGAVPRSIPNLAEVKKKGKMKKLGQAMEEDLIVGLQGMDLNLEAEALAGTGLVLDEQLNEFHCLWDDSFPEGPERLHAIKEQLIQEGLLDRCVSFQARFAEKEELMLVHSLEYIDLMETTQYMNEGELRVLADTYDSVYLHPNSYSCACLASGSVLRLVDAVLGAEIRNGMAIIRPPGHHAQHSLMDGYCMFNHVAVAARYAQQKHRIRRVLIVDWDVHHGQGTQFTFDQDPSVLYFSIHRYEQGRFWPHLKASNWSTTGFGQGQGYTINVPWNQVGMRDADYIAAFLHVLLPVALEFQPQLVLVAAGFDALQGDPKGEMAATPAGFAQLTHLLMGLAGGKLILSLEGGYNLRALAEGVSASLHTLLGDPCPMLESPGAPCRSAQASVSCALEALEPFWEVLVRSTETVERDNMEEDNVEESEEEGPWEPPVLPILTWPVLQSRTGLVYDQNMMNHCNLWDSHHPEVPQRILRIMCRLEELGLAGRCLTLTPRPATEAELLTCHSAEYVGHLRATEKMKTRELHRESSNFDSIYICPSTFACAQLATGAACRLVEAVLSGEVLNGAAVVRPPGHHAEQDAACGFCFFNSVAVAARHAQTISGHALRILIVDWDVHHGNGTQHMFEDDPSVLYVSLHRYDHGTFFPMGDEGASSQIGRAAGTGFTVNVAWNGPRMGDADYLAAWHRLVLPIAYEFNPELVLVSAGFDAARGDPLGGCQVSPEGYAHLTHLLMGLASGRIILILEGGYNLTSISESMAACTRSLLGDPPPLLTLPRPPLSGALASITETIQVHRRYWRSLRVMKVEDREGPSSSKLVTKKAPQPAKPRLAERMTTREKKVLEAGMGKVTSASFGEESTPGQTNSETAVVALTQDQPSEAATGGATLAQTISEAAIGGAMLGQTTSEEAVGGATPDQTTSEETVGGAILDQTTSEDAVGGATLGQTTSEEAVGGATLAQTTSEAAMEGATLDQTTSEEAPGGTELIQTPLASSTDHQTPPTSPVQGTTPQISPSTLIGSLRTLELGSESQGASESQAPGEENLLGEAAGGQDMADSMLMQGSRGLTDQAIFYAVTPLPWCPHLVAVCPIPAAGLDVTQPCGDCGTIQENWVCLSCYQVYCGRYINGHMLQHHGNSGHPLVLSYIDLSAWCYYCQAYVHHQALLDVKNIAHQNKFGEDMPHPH

Histone deacetylase 7 = molecular target: T2, Histone deacetylase 7 (Homo sapiens, UniProt Q8WUI4); assay: Inhibition of HDAC7 (unknown origin) preincubated for 10 mins followed by substrate addition by fluorescence based assay
T2 sequence (Q8WUI4 whole entry): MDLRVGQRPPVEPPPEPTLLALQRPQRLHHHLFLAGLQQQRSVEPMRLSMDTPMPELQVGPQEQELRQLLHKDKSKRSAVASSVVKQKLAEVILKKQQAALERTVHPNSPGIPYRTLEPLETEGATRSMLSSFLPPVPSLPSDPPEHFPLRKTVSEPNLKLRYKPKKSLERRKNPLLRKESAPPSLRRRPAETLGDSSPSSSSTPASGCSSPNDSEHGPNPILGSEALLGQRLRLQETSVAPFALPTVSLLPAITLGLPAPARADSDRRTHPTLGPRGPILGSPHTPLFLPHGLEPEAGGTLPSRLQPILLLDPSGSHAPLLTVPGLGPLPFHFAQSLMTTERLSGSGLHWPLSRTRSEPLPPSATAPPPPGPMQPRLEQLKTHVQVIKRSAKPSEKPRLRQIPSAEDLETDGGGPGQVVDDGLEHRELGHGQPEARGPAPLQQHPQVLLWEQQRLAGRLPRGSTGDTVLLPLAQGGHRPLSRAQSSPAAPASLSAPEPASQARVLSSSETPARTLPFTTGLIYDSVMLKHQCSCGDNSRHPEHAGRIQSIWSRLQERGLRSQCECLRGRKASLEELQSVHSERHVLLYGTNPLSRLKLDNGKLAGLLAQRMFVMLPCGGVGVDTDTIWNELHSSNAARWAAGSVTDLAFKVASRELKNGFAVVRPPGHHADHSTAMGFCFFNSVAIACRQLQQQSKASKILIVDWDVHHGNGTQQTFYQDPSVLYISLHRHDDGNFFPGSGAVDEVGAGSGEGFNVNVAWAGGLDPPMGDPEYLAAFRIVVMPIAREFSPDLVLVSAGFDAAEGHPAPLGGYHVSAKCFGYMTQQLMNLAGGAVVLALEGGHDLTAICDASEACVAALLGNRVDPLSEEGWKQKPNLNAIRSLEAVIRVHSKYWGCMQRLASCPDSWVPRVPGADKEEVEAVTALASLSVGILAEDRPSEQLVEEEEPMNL

RPMI-8226 [5] = assay: Induction of apoptosis in human RPMI-8226 cells assessed as necrotic cells at 2.5 uM incubated for 24 hrs by Annexin V-FITC/PI staining based flow cytometry (reference value: 0.90 %); format: functional
RPMI-8226 [6] = assay: Antitumor activity against human RPMI-8226 cells xenografted in Balb/c nude mouse assessed as ratio of tumor to control at 40 mg/kg, po qd for 21 days administered consecutively relative to control; format: functional; conditions: time 21 day
RPMI-8226 [7] = assay: Antitumor activity against human RPMI-8226 cells xenografted in Balb/c nude mouse assessed as reduction in tumor volume at 10 to 40 mg/kg, po qd for 21 days administered consecutively; format: functional, organism-based; conditions: dose 10-40 mg/kg, time 21.0 day
Histone deacetylase 9 = Histone deacetylase 9 (Homo sapiens, UniProt Q9UKV0); assay: Inhibition of HDAC9 (unknown origin) preincubated for 10 mins followed by substrate addition by fluorescence based assay
Sequence of Histone deacetylase 9 (Q9UKV0 whole entry): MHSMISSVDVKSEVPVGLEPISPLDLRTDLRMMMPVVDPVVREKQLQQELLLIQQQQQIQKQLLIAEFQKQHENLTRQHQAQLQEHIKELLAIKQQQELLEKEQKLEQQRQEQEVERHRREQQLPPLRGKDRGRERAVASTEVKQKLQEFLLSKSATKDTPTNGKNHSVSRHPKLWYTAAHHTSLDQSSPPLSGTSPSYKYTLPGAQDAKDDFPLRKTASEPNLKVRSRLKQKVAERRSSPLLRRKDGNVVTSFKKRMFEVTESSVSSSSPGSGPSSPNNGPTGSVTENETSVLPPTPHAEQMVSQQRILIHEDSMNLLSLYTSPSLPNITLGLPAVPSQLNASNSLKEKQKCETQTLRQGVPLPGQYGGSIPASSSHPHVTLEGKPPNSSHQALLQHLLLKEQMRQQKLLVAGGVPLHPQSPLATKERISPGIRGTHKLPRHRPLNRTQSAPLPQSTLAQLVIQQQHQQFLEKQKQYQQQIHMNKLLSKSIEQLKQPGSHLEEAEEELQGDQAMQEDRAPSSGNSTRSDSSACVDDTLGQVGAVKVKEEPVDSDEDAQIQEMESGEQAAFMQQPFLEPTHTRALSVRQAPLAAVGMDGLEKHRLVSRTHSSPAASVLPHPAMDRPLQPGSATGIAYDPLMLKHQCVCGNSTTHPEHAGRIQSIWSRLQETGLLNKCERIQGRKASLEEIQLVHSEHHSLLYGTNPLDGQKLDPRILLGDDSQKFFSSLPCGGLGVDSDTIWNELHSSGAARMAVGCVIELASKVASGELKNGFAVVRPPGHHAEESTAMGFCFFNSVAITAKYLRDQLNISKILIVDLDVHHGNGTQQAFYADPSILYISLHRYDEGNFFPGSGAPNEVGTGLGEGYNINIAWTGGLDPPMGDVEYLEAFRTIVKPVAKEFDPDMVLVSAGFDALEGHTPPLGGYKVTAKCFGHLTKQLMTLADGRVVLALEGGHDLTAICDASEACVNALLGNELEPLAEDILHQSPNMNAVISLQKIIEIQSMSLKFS

RPMI-8226 [8] = assay: Induction of apoptosis in human RPMI-8226 cells assessed as increase in caspase-3 expression at 0.1 to 2.5 uM incubated for 24 hrs by Western blot analysis; format: functional, cell-based; conditions: dose 0.1-2.5 µM
[9] = Toxicity in Balb/c nude mouse xenografted with human RPMI-8226 cells assessed as adverse effect on heart at 10 to 40 mg/kg, po qd for 21 days administered consecutively by H and E staining based analysis; format: organism-based; conditions: in vivo, 504 h, dose 10-40 mg/kg, time 21 day

Cn1c([C@@H](Cc2ccccc2)NCc2ccccc2)nc2cc(C(=O)NO)ccc21
Activity (RPMI-8226 [1]): 18.97%
Activity [2]: Non-Toxic
Activity (RPMI-8226 [3]): 12.79%
IC50 [4]: 4.63 nM
IC50 (Histone deacetylase 7): 1230 nM
Activity (RPMI-8226 [5]): 0.26%
T/C (RPMI-8226 [6]): 34.8%
Activity (RPMI-8226 [7]): Active
IC50 (Histone deacetylase 9): 1880 nM
Activity (RPMI-8226 [8]): Active
Activity [9]: Non-Toxic
